Consider five compounds from patent EP0326331B1, “Substituted quinolines and cinnolines” (Dow AgroSciences LLC, priority 1988, dated 1989).

Common to all, as to format: in vivo
Experiment [1] relates to Twospotted spider mites (Tetranychus urticae Koch). The experiment is described as follows: Mite/insect screen, SM. The conditions noted are these: Tetranychus urticae, percent mortality; SAW, SM & MA RATE 200 PPM; read-out: SM RESULTS %. The method in brief:
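Activity is expressed as percent mortality at the indicated spray concentrations. Plants are sprayed to runoff on upper and lower leaf surfaces with aqueous dilutions of an acetone/alcohol emulsifiable formulation, then dried for one hour.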

Experiment [2] has as its system Erysiphe graminis tritici (powdery mildew). The experiment is described as follows: Test 1 greenhouse foliar spray screen, powdery mildew on wheat. The conditions noted are these: disease control rating, foliar spray on wheat, 400 ppm (+++ at 100 ppm).
The subject of experiment [3] is Venturia inaequalis (apple scab). The experiment in a line: Test 1 greenhouse foliar spray screen, apple scab on apple seedling. The following applies: disease control rating, foliar spray on apple seedling, 400 ppm (+++ at 100 ppm).
Experiment [4] concerns Pseudoperonospora cubensis (downy mildew). The experiment in a line: Test 1 greenhouse foliar spray screen, downy mildew on squash. The following applies: disease control rating, foliar spray on squash, 400 ppm (+++ at 100 ppm).
The subject of experiment [5] is corn rootworm. The experiment in a line: Mite/insect screen, CRW. The following applies: percent mortality; CRW RATE 12.00 PPM; read-out: CRW RESULTS %. Summed up:
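Compounds were dissolved in 50:50 acetone/alcohol containing sulfonate/nonionic emulsifier blends (23 g/L plus 13 g/L), then diluted with water to the test concentrations. Percent mortality was scored after standard exposure periods.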

The subject of experiment [6] is Septoria tritici (leaf blotch). The experiment is described as follows: Test 1 greenhouse foliar spray screen, leaf blotch on wheat. The conditions noted are these: disease control rating, foliar spray on wheat, 400 ppm (+++ at 100 ppm).
Experiment [7] concerns Puccinia recondita tritici (leaf rust). The experiment in a line: Test 1 greenhouse foliar spray screen, leaf rust on wheat. The following applies: disease control rating, foliar spray on wheat, 400 ppm (+++ at 100 ppm).
Experiment [8] concerns melon aphids (Aphis gossypii Glover). The experiment is described as follows: Mite/insect screen, MA. The conditions noted are these: Aphis gossypii, percent mortality; SAW, SM & MA RATE 200 PPM; read-out: MA RESULTS %. Summed up: (§1)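 Compounds dissolved in 50:50 acetone/alcohol containing sulfonate/nonionic emulsifier blends, then diluted with water to the indicated concentrations. Leaves sprayed on both surfaces to runoff at 10 psi and dried one hour. Percent mortality scored after standard exposure periods.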

In experiment [9] the test system is southern armyworm (Spodopetra eridania Cramer). The experiment in a line: Mite/insect screen, SAW. The following applies: Spodoptera eridania, percent mortality; SAW, SM & MA RATE 200 PPM; read-out: SAW RESULTS %. Summed up: as §1
Experiment [10] concerns Pyricularia oryzae (rice blast). The experiment is described as follows: whole plant or invertebrate. The following applies: disease control rating, foliar spray on rice, 400 ppm (+++ at 100 ppm).
Experiment [11] has as its system Botrytis cinerea (gray mold). The experiment in a line: Test 1 greenhouse foliar spray screen, gray mold on grape berries. The conditions noted are these: disease control rating, spray on grape berries, 400 ppm (+++ at 100 ppm).

As to `COc1ccc(CCNc2ccnc3ccccc23)cc1` [Example 22, N-[2-(4-methoxyphenyl)-ethyl]-4-quinolinamine], the mortality at 200 ppm in experiment [1], in experiment [8] and in experiment [9] was 0% each time. Further, in experiment [2], the “POWD MDEW” value is recorded as “+ (20-89% control at 400 ppm)”. The “APPL SCAB” value in [3] is given as “- (0-19% control at 400 ppm)”. Further, the “DOWN MDEW” value in [4] is listed as “+++ (90-100% control at 100 ppm)”. Besides, the mortality at 12 ppm in experiment [5] was determined as 0%. Moreover, in [6], the “LEAF BLOT” value is reported as “- (0-19% control at 400 ppm)”. Also, the “LEAF RUST” value in experiment [7] was “+ (20-89% control at 400 ppm)”. Further, in experiment [10], the “RICE BLAST” value was “+ (20-89% control at 400 ppm)”. Also, the “GRAY MOLD” value in [11] is listed as “- (0-19% control at 400 ppm)”.
Consider `c1ccc(C(CNc2ccnc3ccccc23)c2ccccc2)cc1` [Example 23, N-(2,2-diphenylethyl)-4-quinolinamine], for which the mortality at 200 ppm in experiment [1], in experiment [8] and in experiment [9] was 0% in each case. For the same compound, in [2], the “POWD MDEW” value was “+ (20-89% control at 400 ppm)”. In addition, the “APPL SCAB” value in [3] was “- (0-19% control at 400 ppm)”. The “DOWN MDEW” value in [4] is “+++ (90-100% control at 100 ppm)”. The mortality at 12 ppm in [5] was found to be 0%. For the same compound, in experiment [6], the “LEAF BLOT” value is on record as “- (0-19% control at 400 ppm)”. The “LEAF RUST” value in experiment [7] is given as “+ (20-89% control at 400 ppm)”. Moreover, the “RICE BLAST” value in [10] is given as “+ (20-89% control at 400 ppm)”. Moreover, the “GRAY MOLD” value in experiment [11] is “- (0-19% control at 400 ppm)”.
Regarding `CC(Cc1ccccc1)Nc1ccnc2ccccc12` (stereo not shown) [Example 24, N-(1-methyl-2-phenylethyl)-4-quinolinamine], the mortality at 200 ppm in experiment [1], in experiment [8] and in experiment [9] was 0% throughout. The “POWD MDEW” value in experiment [2] is recorded as “+ (20-89% control at 400 ppm)”. Also, the “APPL SCAB” value in experiment [3] is “- (0-19% control at 400 ppm)”. For the same compound, in experiment [4], the “DOWN MDEW” value is on record as “+++ (90-100% control at 100 ppm)”. Also, the mortality at 12 ppm in experiment [5] amounted to 0%. Further, the “LEAF BLOT” value in [6] is “- (0-19% control at 400 ppm)”. Besides, the “LEAF RUST” value in experiment [7] is listed as “+ (20-89% control at 400 ppm)”. In experiment [10], the “RICE BLAST” value is on record as “+ (20-89% control at 400 ppm)”. Further, in experiment [11], the “GRAY MOLD” value is given as “- (0-19% control at 400 ppm)”.
On to `Clc1cc(NCCc2ccccc2)c2ccccc2n1` [Example 25, 2-chloro-N-(2-phenylethyl)-4-quinolinamine], for which the mortality at 200 ppm in experiment [1], in [8] and in experiment [9] was 0% in each case. For the same compound, the “POWD MDEW” value in [2] was “+ (20-89% control at 400 ppm)”. For the same compound, the “APPL SCAB” value in experiment [3] is “- (0-19% control at 400 ppm)”. Moreover, in [4], the “DOWN MDEW” value was “+++ (90-100% control at 100 ppm)”. In experiment [5], the mortality at 12 ppm was 0%. The “LEAF BLOT” value in experiment [6] is listed as “- (0-19% control at 400 ppm)”. In addition, the “LEAF RUST” value in experiment [7] was “++ (90-100% control at 400 ppm)”. Further, in experiment [10], the “RICE BLAST” value is listed as “+ (20-89% control at 400 ppm)”. The “GRAY MOLD” value in [11] is “- (0-19% control at 400 ppm)”.
On to `OC(CNc1ccnc2ccccc12)c1ccccc1` (stereo not drawn) [Example 26, α-[(4-quinolinylamino)methyl]benzenemethanol], for which the mortality at 200 ppm in experiment [1], in experiment [8] and in [9] was 0% in each case. For the same compound, in [2], the “POWD MDEW” value is listed as “+ (20-89% control at 400 ppm)”. Moreover, the “APPL SCAB” value in [3] was “- (0-19% control at 400 ppm)”. Besides, the “DOWN MDEW” value in experiment [4] is “+++ (90-100% control at 100 ppm)”. In experiment [5], the mortality at 12 ppm amounted to 0%. For the same compound, in [6], the “LEAF BLOT” value is “- (0-19% control at 400 ppm)”. Moreover, the “LEAF RUST” value in experiment [7] is on record as “- (0-19% control at 400 ppm)”. The “RICE BLAST” value in experiment [10] was “+ (20-89% control at 400 ppm)”. For the same compound, in [11], the “GRAY MOLD” value is “- (0-19% control at 400 ppm)”.
